Structures are written as SMILES. Like-named read-outs stand apart in the source and are kept apart here.

Data set [1] concerns the target T1, P-glycoprotein (Homo sapiens, UniProt P08183). Put plainly: in vitro. The note with it: MDCK-MDR1; for Papp A→B at 2 h / Papp B→A at 2 h: dog. As for the experimental part: MDCKII-MDR1 cells were incubated in cell culture flasks. The incubator was set at 37° C., 5% CO2, and a guaranteed relative humidity of 95%. When the cells reached 70 to 90% confluence, the cells may be seeded to transwells.
50 μL of the cell suspensions were added to the apical chambers of each well of the 96-well transwells at a final seeding density of 5.45×10^5 cells/cm^2.
MDCKII-MDR1 cells may be fully confluent and differentiated after 4 to 8 days of incubation. At this time, the cells may be applied to penetration test. The monolayer membrane resistance was measured with a resistance meter (Millipore), and the resistance per well was recorded. After the test, the transwells were returned to the incubator.
The transwells with MDCKII-MDR1 cells were taken from the incubator. The cell monolayers were rinsed twice with buffer and incubated at 37° C. for 30 minutes.
The rate of the compounds from an apical end to a basolateral end was determined. 75 μL of the buffer containing the test sample was added to each well of the apical chambers (apical end), and 235 μL of the buffer was added to each well of the basolateral chambers (basolateral end).
The rate of the compounds transporting from the basolateral end to the apical end was determined. 75 μL of the buffer was added to the apical chambers (apical end), and 235 μL of the buffer containing the test sample was added to the basolateral chamber (basolateral end).
After the apical chambers and the basolateral chambers were combined respectively, the transwells were incubated at 37° C. for 2 hours.
After incubation, 50 μL of the sample from each well of the apical chambers and the basolateral chambers of the transwells was transferred to new sample tubes respectively. 200 μL of acetonitrile (100 nM of Alprazolam, 200 nM of Labetalol, 200 nM of caffeine, and 2 μM of Ketoprofen) as an internal standard was added to the sample tubes, vortexed for 10 minutes, and centrifuged at 3220 g for 30 minutes. 100 μL of the supernatant was taken and diluted with an equal volume of water for LC-MS/MS analysis. Each sample was incubated in triplicate.
Peak-areas were calculated from ion chromatography results. The apparent permeability coefficient (Papp, unit: cm/s×10-6) of the compounds was calculated by the following formula.
In the formula, VA was the volume of the solution at the acceptor end (Ap→B1 was 0.235 mL, and B1→Ap was 0.075 mL), Area was the membrane area (0.143 cm^2) of 96-well transwell, time was the incubation time (unit: s), [drug]acceptor referred to the drug concentration of the acceptor end after incubation, and [drug]initial,donor referred to the initial concentration of the donor end before incubation.
Efflux ratio was calculated with the following formula.
In the formula, Papp(B_A) was the apparent permeability coefficient from the basolateral end to the apical end, and Papp(A-B) was the apparent permeability coefficient from the apical end to the basolateral end.
The recovery rate was calculated with the following formula.
In the formula, VA was the solution volume of the acceptor end (unit: mL), VD was the solution volume of the donor end (unit: mL), [drug]acceptor referred to the drug concentration of the acceptor end after incubation, and [drug]initial,donor referred to the initial concentration of the donor end before incubation.

The target of data set [2] is T1, P-glycoprotein. Set-up: expressed in transfected cells; host or cells: MDCKII-MDR1 (MDCKII canine kidney cells). As to conditions: cited from earlier work.
The subject of data set [3] is H460 cell line. The data set is described as follows: Hypoxia-dependent cytotoxicity experiment (2 hours exposure, air or N2, CTG). Type of data set: cell-based. As to conditions: Homo sapiens, then 3 days. On the procedure:
To determine the effect of the compounds of the present disclosure on cancer cell proliferation, these compounds were tested for cancer cell anti-proliferative activity in a porous CTG-based assay. Cell growth was compared in the present (treatment groups) and the absence of the test compound. 10,000 cells/well/495 μL of medium was used to test the following cell line, a human tumor cell line of H460 non-small cell lung cancer. The cells were seeded on glass-inserts located in each well of 24-well plates with a density and medium as specified above. 24 hours later, the plates were divided into 2 groups, hypoxia (using N2) group and air group. TH-302 at the concentrations from 100, 10, 0.1 to 0.01 μM, and the test compounds at the concentrations from 10, 1, 0.1, 0.01, 0.001 to 0.0001 were added to each well (500 μL volume) of the treatment groups. The final DMSO concentration in each well was lower than or equal to 1%. The cells in the hypoxia group were incubated for 2 hours in an ELECTROTEK hypoxia workstation. The cells in the air group were incubated for 2 hours in a standard culture incubator. 2 hours later, the test compounds were removed from each well. The cells were washed with 500 μL of medium and incubated in 500 μL of fresh medium for 3 days. 3 days later, 200 μL of medium per well was discarded. 60 μL of CTG was added to the wells, and the plates were placed at room temperature for 15 minutes in the dark. 100 μL of medium from each well of the 24-well plates was transferred to 96-well plates. The chemiluminescence signal values were read with an M5 full-band multi-mode-function microplate reader, and integration=750 ms. The compounds of control 1 and control 2 were used as controls.

The test system of data set [4] is H460 cell line. The data set is described as follows: Cytotoxicity comparison of TH-302 and compound 01 on H460 at different test times. Type of data set: cell-based, human. The note with it: Homo sapiens, NCI-H460, 2 h, H460, exposure for 2 hours, air. The text has this: The cytotoxicity test results of TH-302 and compound 01 on H460 cell line under different test times in the same laboratory, the same operator, and the same experimental conditions.

Another data set concerns H460. The data set is described as follows: Cytotoxicity on cell lines of different species: H460. Type of data set: cell-based. As to conditions: NCI-H460; H460, Human; exposure time: 72 h.
Another data set has as its system AA8. The data set is described as follows: Cytotoxicity on cell lines of different species: AA8. Type of data set: cell-based.
In data set [5] the test system is H460 non-small cell lung cancer. The note with it: cited from earlier work.
A further data set is described as follows: Plasma stability, rat. Type of data set: in vitro ADME. As to conditions: Rat plasma, 5 μM, 37° C., after 30 minutes. As for the experimental part:
(§1) Frozen plasma was melted immediately in a water bath at 37° C. […] The supernatants were collected into new tubes, respectively. pH values of the plasma were checked and recorded. Note: a, no more 2 times melted plasma was used since the sample was received; b, the plasma in pH 7 to pH 8 was used.
(§2) 1 mM of working solution of the test compounds and the control compound, propantheline, were prepared in DMSO. 1 mM of working solution of the control compound in […] was prepared in acetonitrile. 4 μL of the working solutions were added to 796 μL of pre-incubated plasma respectively to achieve a final concentration of 5 μM. The final concentration of solvent was 0.5%.
(§3) […] The test was performed in duplicate. […] 50 μL of the labeled plasma was added to new tubes containing 300 μL of the quench solution of room temperature, i.e., the sample with a preparation time of 0. The samples were vortexed to mix for 5 minutes. […] 100 μL of the supernatant was transferred to new plates.

The nature of the next data set: Plasma stability, dog. Type of data set: in vitro ADME. As to conditions: Dog plasma, 5 μM, 37° C., after 30 minutes. As for the experimental part:
as §1, §2, §3

The nature of a further data set: Plasma stability, human. Type of data set: in vitro ADME. As to conditions: 5 μM, 37° C., after 30 minutes. On the procedure: as §1, §2
Aliquots of 50 μL of labelled plasma were transferred to new tubes and incubated in a water bath at 37° C. at approximately 60 rpm for 2 hours. The test was performed in duplicate. […] 50 μL of the labeled plasma was added to new tubes containing 300 μL of the quench solution of room temperature, i.e., the sample with a preparation time of 0. The samples were vortexed to mix for 5 minutes. […] 100 μL of the supernatant was transferred to new plates.

Another data set in a line: Plasma stability, mouse. Type of data set: in vitro ADME. As to conditions: Mouse plasma, 5 μM, 37° C., after 30 minutes. On the procedure: as §1, §2, §3
The next data set in a line: Plasma stability, monkey. Type of data set: in vitro ADME. The note with it: 5 μM, 37° C., after 30 minutes. As for the experimental part: as §1, §2, §3
For data set [6], the system named is H460 cell line. As to conditions: test results in WO2016210175A1 and CN108024974A, cited from earlier work.
Setting [7] is: test results in WO2016210175A1 and CN108024974A.

T1 sequence (P08183 whole entry): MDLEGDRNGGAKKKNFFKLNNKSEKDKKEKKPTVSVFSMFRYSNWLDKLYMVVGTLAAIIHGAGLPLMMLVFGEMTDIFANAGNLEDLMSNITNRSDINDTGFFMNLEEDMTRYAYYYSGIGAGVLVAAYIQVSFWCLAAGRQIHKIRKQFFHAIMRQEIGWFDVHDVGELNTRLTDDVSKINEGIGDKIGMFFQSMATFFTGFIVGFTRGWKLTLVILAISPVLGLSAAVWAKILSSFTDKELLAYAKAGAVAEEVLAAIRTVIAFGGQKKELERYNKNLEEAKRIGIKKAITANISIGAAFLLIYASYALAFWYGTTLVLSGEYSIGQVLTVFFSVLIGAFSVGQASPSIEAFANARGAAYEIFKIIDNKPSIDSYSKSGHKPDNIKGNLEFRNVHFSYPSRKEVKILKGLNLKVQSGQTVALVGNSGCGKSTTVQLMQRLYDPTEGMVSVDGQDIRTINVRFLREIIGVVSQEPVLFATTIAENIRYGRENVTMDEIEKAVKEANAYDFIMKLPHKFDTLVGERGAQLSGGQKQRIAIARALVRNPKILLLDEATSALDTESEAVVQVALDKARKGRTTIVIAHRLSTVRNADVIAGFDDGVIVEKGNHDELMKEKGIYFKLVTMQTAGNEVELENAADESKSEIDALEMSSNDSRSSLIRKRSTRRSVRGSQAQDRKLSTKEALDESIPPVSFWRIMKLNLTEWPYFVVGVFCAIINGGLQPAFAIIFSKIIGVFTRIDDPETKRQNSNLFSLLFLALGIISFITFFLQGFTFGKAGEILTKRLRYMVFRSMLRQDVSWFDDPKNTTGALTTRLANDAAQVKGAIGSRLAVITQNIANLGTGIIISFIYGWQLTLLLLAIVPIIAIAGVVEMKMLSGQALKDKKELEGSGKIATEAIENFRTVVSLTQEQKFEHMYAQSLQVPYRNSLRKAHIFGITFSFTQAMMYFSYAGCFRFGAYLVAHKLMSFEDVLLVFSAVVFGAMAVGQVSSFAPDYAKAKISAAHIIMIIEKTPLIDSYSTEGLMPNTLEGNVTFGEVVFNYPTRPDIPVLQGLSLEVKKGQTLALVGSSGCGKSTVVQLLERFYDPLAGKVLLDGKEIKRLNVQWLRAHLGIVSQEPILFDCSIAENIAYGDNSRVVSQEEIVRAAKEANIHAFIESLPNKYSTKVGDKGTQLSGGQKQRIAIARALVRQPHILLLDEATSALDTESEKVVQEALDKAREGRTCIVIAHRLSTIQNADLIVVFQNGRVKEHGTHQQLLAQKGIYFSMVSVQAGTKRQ

By Papp A→B is commonly meant the apparent permeability from the apical to the basolateral side of a cell layer. A word on the Papp B→A: it is how fast a substance crosses the layer from the basolateral side. For `Cc1ccc(NC(=O)c2ccc(CN3CCN(C)CC3)cc2)cc1Nc1nccc(-c2cccnc2)n1` [Imatinib, reference compound], on P-glycoprotein [1], the “Papp (A-B)” value was 21.94 10^−6, cm/s; the “Papp (B-A)” value is 18.69 10^−6, cm/s; the Papp A→B at 2 h came to 2.24 ×10⁻⁶ cm/s; the basolateral-to-apical permeability (Papp B→A) at 2 h was found to be 24.1 ×10⁻⁶ cm/s. For the same compound, at P-glycoprotein [2], the “P-gp substrate (known / earlier data and literature)” value is “known P-gp substrates”.
Take `COc1cc2nc(N3CCN(C(=O)c4ccco4)CC3)nc(N)c2cc1OC` [Prazosin, reference compound]: on P-glycoprotein [1], the “Papp (A-B)” value is 28.47 10^−6, cm/s; the “Papp (B-A)” value was 14.14 10^−6, cm/s; the Papp A→B at 2 h worked out at 14 ×10⁻⁶ cm/s; the Papp B→A at 2 h was found to be 28.2 ×10⁻⁶ cm/s. In addition, at P-glycoprotein [2], the “P-gp substrate (known / earlier data and literature)” value is listed as “known P-gp substrates”.
Usually IC50 stands for the concentration needed to halve the response being measured. Turning to `Cn1c(COP(=O)(NCCBr)NCCBr)cnc1[N+](=O)[O-]` [Control 1, Evofosfamide, reference compound], the half-inhibitory concentration (IC50) was determined as 7.98 µM in the data set with H460 cell line [3] (NCI-H460, H460, air, read-out: Normoxia: IC50); 0.0479 µM with H460 cell line [3] (NCI-H460, H460, hypoxia (N2), read-out: N2: IC50); 23 µM in the data set on H460 cell line [4] (Time 1); 8 µM in the data set on H460 cell line [4] (Time 2); 3.3 µM in the data set with H460 cell line [4] (Time 3); 20 µM in the data set with H460. Moreover, the IC50 is 830 µM with AA8 (CHO-AA8, AA8, Rat, exposure time: 72 h) and 0.8 µM in [5] (value from published literature (Meng et al., Mol Cancer Ther 2012)). The “Multiple: Rat/Human” value with AA8 (IC50 AA8 / IC50 H460) amounted to 41.5. Moreover, on P-glycoprotein [2], the “P-gp substrate (known / earlier data and literature)” value is on record as “P-gp substrate”.
For `CC[C@H](C)C(=O)O[C@H]1C[C@@H](C)C=C2C=C[C@H](C)[C@H](CC[C@@H]3C[C@@H](O)CC(=O)O3)[C@H]21` [Lovastatin, reference compound], the Remaining percentage in “Plasma stability, rat” worked out at 0.21%; in “Plasma stability, dog”, 37.6%.
For the compound `CC(C)[N+](C)(CCOC(=O)C1c2ccccc2Oc2ccccc21)C(C)C` [Propantheline, reference compound], the Remaining percentage in the data set “Plasma stability, human” was found to be 0.07%; in the data set “Plasma stability, mouse” it was 5.33%; in the data set “Plasma stability, monkey” it was 48.11%.
As for `C[C@H](OP(=O)(N1CC1)N1CC1)c1ccc([N+](=O)[O-])cc1` [TH2566], the IC50 in data set [5] (setting [7]) is 0.1 µM; with H460 cell line [6] (read-out: N2: IC50), 23 µM; with H460 cell line [6] (read-out: Normoxia: IC50) it was 0.1 µM.
In the case of `C[C@@H](OP(=O)(N1CC1)N1CC1)c1ccc([N+](=O)[O-])cc1` [TH2565], the values for the half-maximal inhibitory concentration (IC50) (in [5] (setting [7]); in the data set on H460 cell line [6] (read-out: N2: IC50); with H460 cell line [6] (read-out: Normoxia: IC50)) were 0.1 µM, 18 µM and 0.1 µM, respectively.

These data come from patent US20230026163A1, “ANTICANCER COMPOUND AND MEDICAL USE THEREOF” (ASCENTAWITS PHARMACEUTICALS, LTD., priority 2019, published 2023).
